Test: xn = mol fraction of the nth substance listed
Conditions: 100 kPa, Liquid; for mass density: Vibrating tube method; for viscosity: Falling or rolling sphere viscometry

CCCCCCCCCCC [undecane] + CCCCO
Conditions	mass density [kg/m3]	viscosity [mPa·s]
323.15 K, x1 = 0.1007	770.78	–
323.15 K, x1 = 0.2004	759.07	–
323.15 K, x1 = 0.299	749.84	–
323.15 K, x1 = 0.3981	742.34	–
323.15 K, x1 = 0.5006	735.91	–
323.15 K, x1 = 0.5964	731	–
323.15 K, x1 = 0.6982	726.58	–
323.15 K, x1 = 0.7979	722.99	–
323.15 K, x1 = 0.9	719.99	–
323.15 K, x1 = 1	718.11	–
328.15 K, x1 = 0.1007	766.71	1.074
328.15 K, x1 = 0.2004	754.97	0.945
328.15 K, x1 = 0.299	745.75	0.853
328.15 K, x1 = 0.3981	738.26	0.79
328.15 K, x1 = 0.5006	731.86	0.744
328.15 K, x1 = 0.5964	726.99	0.716
328.15 K, x1 = 0.6982	722.61	0.693
328.15 K, x1 = 0.7979	719.07	0.685
328.15 K, x1 = 0.9	716.13	0.68
328.15 K, x1 = 1	714.39	0.692
333.15 K, x1 = 0.1007	762.58	0.974
333.15 K, x1 = 0.2004	750.83	0.86
333.15 K, x1 = 0.299	741.61	0.782
333.15 K, x1 = 0.3981	734.14	0.729
333.15 K, x1 = 0.5006	727.78	0.69
333.15 K, x1 = 0.5964	722.94	0.667
333.15 K, x1 = 0.6982	718.61	0.647
333.15 K, x1 = 0.7979	715.12	0.641
333.15 K, x1 = 0.9	712.24	0.638
333.15 K, x1 = 1	710.68	0.651
338.15 K, x1 = 0.1007	758.39	0.882
338.15 K, x1 = 0.2004	746.61	0.785
338.15 K, x1 = 0.299	737.42	0.719
338.15 K, x1 = 0.3981	729.97	0.675
338.15 K, x1 = 0.5006	723.65	0.641
338.15 K, x1 = 0.5964	718.86	0.622
338.15 K, x1 = 0.6982	714.57	0.606
338.15 K, x1 = 0.7979	711.13	0.602
338.15 K, x1 = 0.9	708.34	0.601
338.15 K, x1 = 1	706.95	0.615
343.15 K, x1 = 0.1007	754.12	0.802
343.15 K, x1 = 0.2004	742.34	0.72
343.15 K, x1 = 0.299	733.15	0.663
343.15 K, x1 = 0.3981	725.75	0.626
343.15 K, x1 = 0.5006	719.48	0.598
343.15 K, x1 = 0.5964	714.72	0.582
343.15 K, x1 = 0.6982	710.49	0.569
343.15 K, x1 = 0.7979	707.12	0.566
343.15 K, x1 = 0.9	704.41	0.567
343.15 K, x1 = 1	703.22	0.58
348.15 K, x1 = 0.1007	749.78	0.732
348.15 K, x1 = 0.2004	738.01	0.662
348.15 K, x1 = 0.299	728.84	0.614
348.15 K, x1 = 0.3981	721.47	0.583
348.15 K, x1 = 0.5006	715.24	0.56
348.15 K, x1 = 0.5964	710.54	0.546
348.15 K, x1 = 0.6982	706.38	0.535
348.15 K, x1 = 0.7979	703.07	0.534
348.15 K, x1 = 0.9	700.47	0.536
348.15 K, x1 = 1	699.47	0.549
353.15 K, x1 = 0.1007	745.37	0.671
353.15 K, x1 = 0.2004	733.6	0.611
353.15 K, x1 = 0.299	724.46	0.57
353.15 K, x1 = 0.3981	717.14	0.544
353.15 K, x1 = 0.5006	710.97	0.525
353.15 K, x1 = 0.5964	706.32	0.514
353.15 K, x1 = 0.6982	702.22	0.506
353.15 K, x1 = 0.7979	698.99	0.505
353.15 K, x1 = 0.9	696.51	0.508
353.15 K, x1 = 1	695.72	0.522
358.15 K, x1 = 0.1007	740.87	0.617
358.15 K, x1 = 0.2004	729.1	0.565
358.15 K, x1 = 0.299	720.01	0.531
358.15 K, x1 = 0.3981	712.73	0.51
358.15 K, x1 = 0.5006	706.63	0.493
358.15 K, x1 = 0.5964	702.04	0.485
358.15 K, x1 = 0.6982	698.02	0.477
358.15 K, x1 = 0.7979	694.88	0.479
358.15 K, x1 = 0.9	692.52	0.483
358.15 K, x1 = 1	691.96	0.497
363.15 K, x1 = 0.1007	736.28	0.569
363.15 K, x1 = 0.2004	724.55	0.525
363.15 K, x1 = 0.299	715.49	0.497
363.15 K, x1 = 0.3981	708.28	0.479
363.15 K, x1 = 0.5006	702.24	0.465
363.15 K, x1 = 0.5964	697.72	0.458
363.15 K, x1 = 0.6982	693.78	0.452
363.15 K, x1 = 0.7979	690.73	0.455
363.15 K, x1 = 0.9	688.52	0.46
363.15 K, x1 = 1	688.18	0.475

Reference: the NIST ThermoML archive (doi:10.1021/acs.jced.6b00121)
